Test system: patients of Parkinson's disease experiencing motor fluctuations
Assay: Multivariate logistic regression analysis of patient baseline factors associated with efficacy of istradefylline (odds ratios)
Assay type: in vivo, human
Experimental: The cut-off value for the treatment effect used to determine the efficacy of istradefylline was defined as a reduction in OFF time (1 hour or longer), an increase in ON time without troublesome dyskinesia (1 hour or longer), and an improvement in UPDRS Part III score (3 points or more) from the clinically meaningful point of view. […] Further, with respect to the UPDRS Part II score at OFF state, an improvement of 1 point or more from the sensitivity/(1-specificity) curve (ROC curve) using the UPDRS Part II score and the CGI-I score was defined as the cut-off of the effect.
The study of baseline factors having a favorable effect on the respective outcomes of the efficacy of istradefylline was performed by multivariate logistic regression analysis controlling for 12 baseline factors, which were expressed as the odds ratio (OR) and 95% confidence interval (CI). The efficacy outcomes included daily OFF time, ON time without troublesome dyskinesia, UPDRS Part III score at ON state, CGI-I, and UPDRS Part II score at OFF state. As covariates in the logistic regression analysis, age, sex, the presence or absence of dyskinesia history (determined based on the patient diary at baseline), mean daily OFF time, total UPDRS Part III score, mH&Y score at ON state and OFF state, concomitant drugs, duration of Parkinson's disease (duration of PD), duration of motor complications, L-DOPA dose, and levodopa-equivalent dose were used.
In this study, with respect to the outcomes under the treatment with istradefylline, analysis of baseline factors associated with expressing a more favorable effect was performed according to the following three steps. First, interactions between the treatment with istradefylline (two doses: 20 mg and 40 mg) and 12 baseline factors were evaluated based on type III p-value by multivariate logistic regression analysis (an index for evaluating whether or not the heterogeneity (interaction) occurs in the association between the treatment and the outcome due to a certain baseline factor). As the second step, an odds ratio (OR) was estimated for the baseline factor associated with the achievement of a more favorable effect according to the dose group of istradefylline if a significant interaction is observed between the treatment with istradefylline and the baseline factor. In addition, OR was estimated for the baseline factor associated with the achievement of a more favorable effect in all patient groups if an interaction is not observed between the treatment with istradefylline and the baseline factor.
A two-tailed p value <0.05 and an interaction p value <0.10 were determined to be statistically significant. All analyses were performed using SAS software version 9.2 or 9.3 (SAS Institute, Inc., Cary, N.C., USA).

[1] = age ≥65 vs <65 y (ref), 20 and 40 mg/day together
[2] = baseline UPDRS Part III score ≥20 vs <20 (ref), 20 and 40 mg/day together
[3] = baseline m Hoehn & Yahr scale at OFF state ≥3 vs <3 (ref), 20 and 40 mg/day together
[4] = baseline mean daily OFF time 4 to <8 h vs <4 h (ref), 20 mg/day
[5] = baseline mean daily OFF time 4 to <8 h vs <4 h (ref), 40 mg/day
[6] = baseline mean daily OFF time 4 to <8 h vs <4 h (ref), 20 and 40 mg/day together
[7] = baseline mean daily OFF time ≥8 h vs <4 h (ref), 20 mg/day
[8] = baseline mean daily OFF time ≥8 h vs <4 h (ref), 40 mg/day
[9] = baseline mean daily OFF time ≥8 h vs <4 h (ref), 20 and 40 mg/day together

SMILES: CCn1c(=O)c2c(nc(/C=C/c3ccc(OC)c(OC)c3)n2C)n(CC)c1=O [istradefylline]
- Odds ratio, increase in ON time without troublesome dyskinesia (1 hour or longer) (age ≥65 vs <65 y (ref), 20 mg/day): 1.47
- Odds ratio, increase in ON time without troublesome dyskinesia (1 hour or longer) (age ≥65 vs <65 y (ref), 40 mg/day): 2.88
- Odds ratio, OFF time reduction (1 hour or longer) [1]: 2.65
- Odds ratio, improvement in CGI-I (very much, much or minimally improved) [1]: 1.17
- Odds ratio, improvement in UPDRS Part II score (OFF) [1]: 0.90
- Odds ratio, improvement in UPDRS Part III score (3 points or more) [1]: 0.65
- Odds ratio, OFF time reduction (1 hour or longer) [2]: 0.88
- Odds ratio, improvement in CGI-I (very much, much or minimally improved) [2]: 1.49
- Odds ratio, improvement in UPDRS Part II score (OFF) [2]: 0.79
- Odds ratio, improvement in UPDRS Part III score (3 points or more) [2]: 2.79
- Odds ratio, increase in ON time without troublesome dyskinesia (1 hour or longer) [2]: 0.97
- Odds ratio, improvement in UPDRS Part II score (OFF) (baseline m Hoehn & Yahr scale at OFF state ≥3 vs <3 (ref), 20 mg/day): 0.99
- Odds ratio, improvement in UPDRS Part II score (OFF) (baseline m Hoehn & Yahr scale at OFF state ≥3 vs <3 (ref), 40 mg/day): 3.50
- Odds ratio, OFF time reduction (1 hour or longer) [3]: 0.63
- Odds ratio, improvement in CGI-I (very much, much or minimally improved) [3]: 1.89
- Odds ratio, improvement in UPDRS Part III score (3 points or more) [3]: 1.81
- Odds ratio, increase in ON time without troublesome dyskinesia (1 hour or longer) [3]: 0.60
- Odds ratio, OFF time reduction (1 hour or longer) [4]: 1.27
- Odds ratio, increase in ON time without troublesome dyskinesia (1 hour or longer) [4]: 1.09
- Odds ratio, OFF time reduction (1 hour or longer) [5]: 1.58
- Odds ratio, increase in ON time without troublesome dyskinesia (1 hour or longer) [5]: 0.58
- Odds ratio, improvement in CGI-I (very much, much or minimally improved) [6]: 1.09
- Odds ratio, improvement in UPDRS Part II score (OFF) [6]: 1.00
- Odds ratio, improvement in UPDRS Part III score (3 points or more) [6]: 0.85
- Odds ratio, OFF time reduction (1 hour or longer) [7]: 1.57
- Odds ratio, increase in ON time without troublesome dyskinesia (1 hour or longer) [7]: 1.19
- Odds ratio, OFF time reduction (1 hour or longer) [8]: 6.68
- Odds ratio, increase in ON time without troublesome dyskinesia (1 hour or longer) [8]: 2.38
- Odds ratio, improvement in CGI-I (very much, much or minimally improved) [9]: 0.85
- Odds ratio, improvement in UPDRS Part II score (OFF) [9]: 0.98
- Odds ratio, improvement in UPDRS Part III score (3 points or more) [9]: 0.53

Reference: US12527800B2, “Therapeutic agent for Parkinson's disease” (KYOWA KIRIN CO., LTD., priority 2019, dated 2026)
